Measured values from a melting point compilation (Tetko et al.; mined from patent text by program, amines drawn as free bases though some values may be those of a salt).

melting point [°C]	Compound
181 to 182	COc1ccc(-c2c(Cl)ncnc2NS(=O)(=O)c2ccc(C(C)C)cc2)cc1
275 to 285	O=C(c1ccc(-c2ccc(Cl)cc2)cc1)C(O)O
120 to 123	CCSc1ncccc1C(=O)N1CCC(=O)c2ccc(Cl)cc21
114 to 116	C#Cc1ccc([C@H]2CC[C@H](CCCCC)CC2)nn1
181 to 182	CCN(CC)c1ccc(N=Nc2ccc(C#N)c(C#N)c2)c(NC(C)=O)c1
138 to 139	CC(=O)N(CC(C)C)C1NC(=O)N(c2cccs2)C(=O)N1
60	CCOP1(=O)OCc2ccccc21 (stereo not drawn)
175	Nc1c2c(nc3cccc(F)c13)CCCC2
246 to 248	NS(=O)(=O)c1ccc(-n2nc(C(F)F)cc2-c2nc3cccc(F)c3s2)cc1
233 to 238	CNc1c(F)cc2c(=O)c(C(=O)O)cn(-c3ccc(F)c(N)n3)c2c1Cl
92 to 94	O=C(O)C(Cc1cccc(F)c1)c1ccc(F)cc1 (stereo not drawn)
161 to 163	CC(C)C(S)C(=O)NC1(C(=O)NC(Cc2ccc(-c3ccccc3)cc2)C(=O)O)CCOCC1 (stereo not drawn)
> 250	O=C1Nc2ccccc2C(=O)C1=O
151	CCOC(=O)c1c(NC(=O)NCC(=O)OC)sc(C)c1C
127 to 129	CCc1ccc2[nH]c(SCC(F)(F)F)nc2c1
76 to 77	COC(=O)COc1cccc2c1CCC(Br)C2=O (stereo not drawn)
162 to 164	COC(=O)CCC(NC(c1ccccc1)c1ccccc1)P(O)O (stereo not drawn)
125 to 129	Cn1nc(N2c3ccccc3C[C@H]2C(=O)N2CCCC(C)(C)C2)ccc1=O
154 to 155	CCOC(=O)c1sc(NC(=O)c2cc(C(F)(F)F)cc(C(F)(F)F)c2)nc1C(F)(F)C(F)(F)F
246 to 252	Cc1cc(-c2ccc(C(F)(F)F)cn2)nc(-c2cccc(-c3cccc(S(N)(=O)=O)c3)n2)n1
240 to 242	Cc1c(/C=C/C(=O)c2c[nH]c3ccccc23)ncn1C(c1ccccc1)(c1ccccc1)c1ccccc1
240 to 246	N#Cc1cccc(C2=Nc3ccc(C#Cc4ccc(F)cc4F)cc3NC(=O)C2)c1
194 to 195	Cc1nc(-c2ccc(O)cc2)sc1C

melting point [°C]	Compound
52 to 53	CCCNC(=O)C(C)c1nc(CC)no1 (stereo not drawn)
138 to 140	O=C(Nc1ccc(F)c(C(F)(F)F)c1)c1csc2cc(Oc3cc(CO)ncn3)ccc12
122 to 123	COc1cc(COc2cc(/C=C/c3ccccn3)n(-c3ccccc3)n2)ccc1OCc1nc(-c2ccco2)oc1C
94 to 95	O=C(O)c1cc(C(F)(F)F)ccc1OCc1ccccc1
155 to 158	COC(=O)c1ccccc1Nc1cc(C(C)(C)C)c(O)c(C(C)(C)C)c1
75 to 79	CC(=O)NCCOc1nc(-c2ccc(F)cc2C)c2ccc(=O)n(-c3c(F)cccc3F)c2n1
185 to 188	COC(=O)c1ccc(OCCCNc2ccc(NCc3ccc4c(c3)OCCO4)cc2)cc1
130	O=C(O)CCCn1c(=O)n2n(c1=O)C(C(=O)O)C=CC2 (stereo not drawn)
121 to 122	CC(=O)N1CCSC1Cc1cnn(-c2ccccc2)c1-c1ccc(Cl)cc1 (stereo not drawn)
290 to 292	c1ccc2c(NCC3CCCCC3)c3cnn(C4CCCC4)c3nc2c1
228 to 230	Nn1c(=O)n(-c2cc(Cl)ccc2O)c2ccc(C(F)(F)F)cc21
106 to 107	COC(=O)c1cc2cc(COc3cccnc3)ccc2s1
237 to 240	Cc1c(CN2CCOCC2)sc2c(Br)c3ccccc3c(-c3cc(Br)c(O)c(Br)c3)c12
109 to 110	Cc1oc(-c2ccccc2)nc1CCOc1ccc(CC#N)cc1
65	O=C(CCNNC(=O)c1ccccc1)OCc1ccccc1
220 to 222	CCOCc1nc2c(N)nc3cc(OCCc4c[nH]c5ccccc45)ccc3c2n1CC(C)(C)O
168 to 169	CCOCc1nc2c(N)nc(C)c(C)c2n1CCC1CCN(C(=O)C(C)C)CC1
181 to 183	O=C(Nc1ccc(F)cc1)NC1C(=O)N(CC(=O)N2CCCC2)c2ccccc2N(C2CCCCC2)C1=O (stereo not drawn)
139 to 141	COc1ccc(C=Cc2nnc(CCl)o2)cc1
107 to 108	Clc1ccc(CNc2cccnc2)cc1
98.5 to 98.9	COC(=O)/C=C/Oc1ccc(Oc2ccc(F)cc2F)c(NS(C)(=O)=O)c1
128	COC(CN1CCN(c2ccc(F)cc2)CC1)CN1c2cccc3cccc(c23)S1(=O)=O (stereo not drawn)
91 to 92	COn1c(C(F)(F)F)nc2ncc(Cl)cc21

melting point [°C]	Compound
125 to 126	COC(=O)N(C)C1CN(C(=O)Nc2ccc(OC(F)(F)F)cc2)N=C1c1ccc(OC(F)F)cc1 (stereo not drawn)
113 to 114	CNC(=O)n1nc(Oc2c(Cl)cc(C(F)(F)F)cc2Cl)cc1C
140 to 142	CCCC(=O)C(=CNc1ccc(O)cc1OC)C(=O)OCC
91 to 92	CCOC(=O)CCCCC(=O)OCC1=C(C(=O)OCC)C(c2ccccc2Cl)C(C(=O)OCC)=C(C)N1 (stereo not drawn)
179	COCn1ccnc1C(O)(c1ccc(F)cc1)c1ccc(Cl)cc1Cl (stereo not drawn)
217 to 220	N#Cc1ccc2nc(Cl)c3ccccc3c(=O)c2c1
50 to 52	CCCCSc1nc2c(cc1C#N)C(=O)CC(C)(C)C2
136 to 138	CCN=C(N)Nc1cnn(C(C)CCC(=N)NNC(C)=O)n1 (stereo not drawn)
49 to 50	CCCc1nc(N2CCOCC2)nc(N(CCOC(C)=O)C(C)=O)n1
207 to 210	CN(Cc1cc2cc(Cl)ccc2o1)C1CCN(c2ccc(OC[C@@]3(C)Cn4cc([N+](=O)[O-])nc4O3)cc2)CC1
216 to 219	Cc1c(C)c(N2CCN(c3ccc(OC(F)(F)F)cc3)CC2)c(C)c2c1OC(C)(C)C2
184 to 186	COc1ccc(-c2cc(C(N)=O)c(=O)n(CC=Cc3ccccc3)n2)cc1
> 300	CC(=O)Oc1n[nH]c(=O)c2nc3cc(Cl)ccc3c(O)c12
166 to 167	CCCn1c(-c2ccccc2)cc(=O)c(C(=O)O)c1-c1ccccc1
142 to 144	CC1(C)Oc2ccc(C(N)=S)cc2C(Oc2ccnc(O)c2)C1(C)O (stereo not drawn)
260 to 262	CCc1cccc(C)c1CNc1cc(C(=O)N(C)C)nc2c(C)c(C)[nH]c12
103 to 104	COCN1C(C)=C(C(=O)OCOC(=O)C(C)(C)C)C(c2cccc(Cl)c2Cl)C(C(=O)OCOC(=O)C(C)(C)C)=C1C
205 to 207	O=C(Cc1c(-c2ccccc2)c2cc(CN3CCOCC3)c(Cl)cc2oc1=O)Nc1ccc(Cl)cc1C(F)(F)F
147 to 151	O=C(c1cccc2cc[nH]c12)N1CCN(c2cccc(C(F)(F)F)c2)CC1
222 to 223	Cc1nc(C)c(Cl)c(NCc2cccc(Oc3ccc4ncc([N+](=O)[O-])n4n3)c2)n1
102 to 108	CNS(=O)(=O)c1ccccc1Nc1nc(Nc2ccc3c(c2)CCN(CCOC)CC3)ncc1Cl
144 to 145	O=C1C=C(c2ccc(Cl)cc2)C(=O)O1
97	CC(=O)/C(=C/I)c1ccccc1

melting point [°C]	Compound
153 to 155	Cn1ncc2c1CCCc1cn[nH]c1-2
88 to 91	COc1cc(N)c(C(=O)O)c(OC)c1OC
220	O=C(ONC1CCCCC1)c1n[nH]c2c(=O)[nH]c3cc(Cl)ccc3c(=O)c12
37 to 43	CN(C)C(=O)N(CCl)c1ccc(Cl)cc1
196 to 198	CC(=O)Nc1nc2c(nc(F)n2COCCOC(C)=O)c(=O)[nH]1
43 to 44	[N-]=[N+]=C1CCCCCCCCCCC1=O
246	COc1ccc(C(=O)Nc2ccc(F)cc2)c2c1oc1ccccc12
149 to 150	CCCCCCCCCCc1ccc2cc(SC)c(OS(=O)(=O)C(F)(F)F)cc2c1
111	Cc1ccc(-c2c3ccccc3nn2Cc2ccccc2)cc1
247 to 248	COc1ccc(CC2C(=O)N(Cc3ccccc3)c3ccccc3N(C(=O)CN3C(=O)c4ccccc4C3=O)C2C)cc1 (stereo not drawn)
132 to 133	Cc1nc(N2CCC(Cc3ccc(OC(F)F)cc3)C2=O)sc1C(=O)NCc1ccccc1 (stereo not drawn)
117 to 119	CC(=O)OCc1ccc(-c2ccccc2-c2nnnn2C(c2ccccc2)(c2ccccc2)c2ccccc2)cc1
86 to 88	CCCCCCCCCCNC(=O)c1cccc([N+](=O)[O-])c1
123 to 124	CN1CCc2c(c3ccccc3n2CCC(=O)NN)C1
198 to 199	O=C(O)C1=Cc2cc(Cl)c(Oc3ccc(OC(F)(F)F)cc3)cc2OC1C(F)(F)F (stereo not drawn)
101 to 103	CCOc1ccc(Oc2c([N+](=O)[O-])cc(C(=O)OC)cc2[N+](=O)[O-])cc1
138	CN(C(=O)Cc1ccccc1)c1cccc(-c2ccc(CC3SC(=O)NC3=O)cc2)c1 (stereo not drawn)
186 to 187	COc1cn(-c2cc(-n3cccn3)ccc2F)nc(-c2ccnn2-c2ccccc2)c1=O
107 to 108	CCc1cc(C)c2c(-c3cccc(Br)c3)cc(=O)n(CC)c2n1
134 to 137	CCOC(=O)c1cc2cc(C(F)(F)F)ccc2[nH]1
136 to 137	COC(=O)[C@H]1Cc2ccc(C)cc2C(=O)[C@H](c2ccccc2)S1 (relative stereo)
42 to 45	C#CC(C)(C)CCOc1ccc(Cl)cc1

Compound	melting point [°C]
NC(=NO)c1ncn2c1[C@@H]1CCCN1C(=O)c1c(Cl)cccc1-2	249 to 250
O=C1NCN(c2ccc(F)c(Cl)c2)C12CCN(C1CCC(c3ccc(F)cc3)(c3ccc(F)cc3)CC1)CC2	201 to 203
CN1C(=O)CN2CC(CCl)OC2(c2ccccc2)c2cc(Cl)ccc21 (stereo not drawn)	140 to 142
CNC(=O)ON=C1N=C(C)C(C)(CC(C)C)S1 (stereo not drawn)	99 to 101
CCC1CC(=O)C=C2CCC3C4CCC(=O)C4(C)CCC3C21C (stereo not drawn)	168
COc1cccc(NC(=O)NC2N=C(c3ccc(C)cc3)c3ccccc3N(C)C2=O)c1 (stereo not drawn)	240 to 242
CN1CCN2CCCOC2(c2ccccc2)c2cc(Cl)ccc21 (stereo not drawn)	142 to 144
